# Measured values taken from patent US20240382434A1, “CARYOPHYLLENE-CONTAINING COMPOSITION” (SUNSHO PHARMACEUTICAL CO., LTD., priority 2021, published 2024).
# Experiments:
# Type in all cases: physicochemical
# Conditions in all cases: conclusion in words
# [1] = Experiment 1: Volatilization of menthol
# Method: The prepared compositions were placed in petri dishes and used as test samples.
# Each test sample was allowed to volatilize without being covered under room temperature conditions for a certain period of time. The mass of each test sample was measured at a given time point. The volatilization amount and rate were calculated from the measured values.
# Similarly, the volatilization amount and rate of a test sample using only caryophyllene were also calculated.
# The time constant was calculated from the measurement results [by subtracting the volatilization amount of caryophyllene (theoretical value)].
# In the table, the unit of the time constant is hour (h) (the same applies hereinafter).
# [2] = Experiment 2: Dissolution of menthol
# Method: The amounts (parts by mass (pbm)) of the ingredients shown in the table below were placed into 20-mL lidded glass bottles.
# The lidded glass bottles were placed into a water bath set at 25° C. After the temperature reached 25° C., the bottles were kept warm for 30 minutes to adjust the temperature.
# The temperature was continuously kept at 25° C. With every 20 minutes, the lidded glass bottles were inverted for mixing and checked visually to see if the menthol had dissolved. The time to complete dissolution was recorded as the time required for the menthol to dissolve. Check was made every 20 minutes until 360 minutes had passed, and then 3 days later, visual check was made again. When the menthol had not dissolved after 3 days, the result was recorded as non-dissolved.
# [3] = Experiment 3: Freezing resistance
# Method: The amounts (parts by mass (pbm)) of the ingredients shown in the table below were mixed and placed into 20-mL lidded glass bottles to dissolve into solutions. The lidded glass bottles were placed into a water bath set at 25° C. After the temperature reached 25° C., the bottles were kept warm for 30 minutes to adjust the temperature.
# Then, the glass bottles were placed in a freezer (at approximately −20° C.). The freezer was opened every 30 minutes to visually check if each solution had solidified. The time point when the solution was partially solidified and the time point when the solution was completely solidified were recorded. Check was made every 30 minutes until 360 minutes had passed, and then 3 days later, visual check was made again. When the menthol had not solidified after 3 days, the result was recorded as non-solidified.
substance,measurement,setting,value
Caryophyllene,Effect on volatilization of menthol,[1],enhances volatilization of menthol
same,Effect on dissolution of menthol,[2],enhanced dissolution of menthol
same,Effect on freezing resistance of the MCT,[3],improved freezing resistance of the MCT
